Experimental data as given in paper PMC6234229, “The role of loops B and C in determining the potentiation of GABAA receptors by midazolam” (Pharmacology Research & Perspectives, 2018).
“And” between values parts separate entries of the source, which are not always exact repeats. Equal values may be shown once.

Assays:
Assay in all cases: Midazolam potentiation of EC10 GABA currents, whole-cell patch clamp, HEK293T
Type in all cases: cell-based
[1] = target: T1, α1(S206I)β2γ2 GABAA receptor (Homo sapiens, UniProt P14867+P18507+P47870, S233I)
T1 construct: expressed in transfected cells; host or cells: HEK293T
T1 sequence (P14867 28-456 S233I): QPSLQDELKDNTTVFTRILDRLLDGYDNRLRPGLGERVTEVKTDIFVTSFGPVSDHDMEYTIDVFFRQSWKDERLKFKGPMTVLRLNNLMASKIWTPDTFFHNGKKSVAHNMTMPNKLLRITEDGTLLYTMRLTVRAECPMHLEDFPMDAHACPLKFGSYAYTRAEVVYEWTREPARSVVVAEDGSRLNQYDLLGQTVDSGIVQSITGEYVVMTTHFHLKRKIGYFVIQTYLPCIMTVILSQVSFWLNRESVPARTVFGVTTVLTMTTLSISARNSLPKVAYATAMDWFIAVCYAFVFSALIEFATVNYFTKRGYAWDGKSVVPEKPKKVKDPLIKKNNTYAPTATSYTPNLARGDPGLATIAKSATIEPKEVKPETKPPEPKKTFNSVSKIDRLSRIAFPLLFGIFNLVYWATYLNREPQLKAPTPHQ
T1 sequence (P47870 25-512 limits assumed, stated change not applied): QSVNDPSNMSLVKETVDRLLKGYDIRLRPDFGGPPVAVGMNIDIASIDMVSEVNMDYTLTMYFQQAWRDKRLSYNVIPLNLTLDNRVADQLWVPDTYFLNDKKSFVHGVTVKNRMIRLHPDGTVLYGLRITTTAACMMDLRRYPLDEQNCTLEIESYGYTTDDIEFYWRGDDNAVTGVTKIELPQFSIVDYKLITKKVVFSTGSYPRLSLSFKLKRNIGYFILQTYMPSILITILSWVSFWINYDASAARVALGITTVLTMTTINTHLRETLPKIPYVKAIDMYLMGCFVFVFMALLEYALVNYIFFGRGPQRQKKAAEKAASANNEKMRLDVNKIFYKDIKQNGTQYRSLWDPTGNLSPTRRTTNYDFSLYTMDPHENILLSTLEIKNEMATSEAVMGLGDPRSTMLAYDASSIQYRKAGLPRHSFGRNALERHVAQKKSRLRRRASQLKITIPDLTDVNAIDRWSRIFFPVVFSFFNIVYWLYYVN
T1 sequence (P18507 40-467 isoform P18507-1 limits assumed, stated change not applied): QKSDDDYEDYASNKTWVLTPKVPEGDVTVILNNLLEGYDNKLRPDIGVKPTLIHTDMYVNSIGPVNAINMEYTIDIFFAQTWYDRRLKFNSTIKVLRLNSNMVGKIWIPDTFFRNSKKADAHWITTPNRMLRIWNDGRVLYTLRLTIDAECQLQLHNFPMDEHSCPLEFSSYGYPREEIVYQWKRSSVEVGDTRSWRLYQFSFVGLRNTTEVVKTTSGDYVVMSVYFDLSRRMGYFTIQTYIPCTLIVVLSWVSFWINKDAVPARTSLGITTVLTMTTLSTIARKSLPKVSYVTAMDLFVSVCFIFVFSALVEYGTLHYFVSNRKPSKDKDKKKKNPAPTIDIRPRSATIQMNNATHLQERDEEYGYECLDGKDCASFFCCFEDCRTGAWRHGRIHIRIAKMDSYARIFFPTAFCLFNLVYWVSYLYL
Source text: (§1) Human (Homo sapiens) GABAA subunits (α1‐6, β2, γ2s) were subcloned into pcDNA3.1+ vectors with a cytomegalovirus (CMV) promoter. The hβ2 and hα3 sequences were humanized rat (Rattus norvegicus) cDNA with amino acid substitutions made to match the human protein sequence. The α1‐3, α5, β2, and γ2s subunits were a generous gift from Neil L. Harrison (Columbia University Medical Center, NY). The α4 subunit was obtained from GenScript (Piscataway, NJ), and the α6 subunit was a generous gift from Robert L. McDonald (Vanderbilt University, TN). All point mutations (listed in Figure 1C) were introduced using the QuikChange Lightening site‐directed mutagenesis kit (Agilent Technologies, Santa Clara, CA) according to the manufacturer's instructions and were confirmed by sequencing (Eurofins MWG Operon, Louisville, KY).
(§2) Human embryonic kidney cells containing the SV40 T‐antigen (HEK293T) were acquired from American Type Culture Collection (ATCC®, Manassas, VA), catalogue number, CRL3216. HEK293T cells were maintained at 37°C and 5% CO2 in Eagle Minimum Essential Medium (MEM) supplemented with 5% fetal bovine serum (Atlanta Biologicals Inc., Flowery Branch, GA), 40 μM L‐glutamine, 100 U/mL penicillin and 0.1 mM streptomycin. Cells were passaged regularly when they reached 70% confluency using trypsin. Cells were not passaged more than 22 times. New cells were revived from frozen stocks at passage 2‐4. Cells used for in vitro electrophysiology experiments were grown on poly‐D‐lysine‐coated glass coverslips (No.2, VWR, Radnor, PA) and transfected with X‐tremeGENE (Roche Diagnostics, Indianapolis, IN) with the desired receptor subunit cDNAs at a 1:1:1 ratio to express αxβ2γ2s receptors (2 μg total cDNA) and with 0.5 μg green fluorescent protein (GFP) as an expression marker. The γ2s incorporation into receptors was tested with zinc inhibition assays regularly.24 Patch clamp experiments were performed on cells at 24‐72 hours post‐transfection. All experiments were performed at 22°C. Experiments consisted of at least five cells recorded per day from at least two transfections across 3‐4 days to control for cell health and transfection efficiency. At least three cells expressing wild‐type receptors were recorded on days that mutant receptors were tested to provide a time‐matched expression control. All reagents were purchased from Sigma‐Aldrich (St. Louis, MO) unless otherwise stated.
(§3) Extracellular solution contained 161 mM NaCl, 3 mM KCl, 1 mM MgCl2, 1.5 mM CaCl2, 10 mM HEPES, and 6 mM D‐glucose, adjusted to pH 7.4 with NaOH (320‐330 mOsm). […] The perfusion system was controlled by protocols written in pClamp 9 (Molecular Devices, LLC., Sunnyvale, CA). Whole‐cell currents were recorded at ‐60 mV, filtered at 100 Hz and sampled at 200 Hz with a MultiClamp 700B amplifier (Molecular Devices, LLC) and DigiData 1322A (Molecular Devices, LLC) digitizer. […] Cells were recorded with the midazolam protocol no more than two times to avoid desensitization and incomplete washout or irreversible modulation.
(§4) Recordings were analyzed using MATLAB (Math Works, Inc., Natick, MA). […] The maximum peak current, EC50 and Hill coefficient were estimated for assays from each cell. When Hill parameters are estimated from whole‐cell recordings, the changes in the parameters across receptor conditions can be ascribed to the following changes in receptor physiology. Changes in maximum current can be due to changes in the single‐channel conductance or the rate of desensitization. Changes in cell surface receptor expression can cause minor changes in maximum current, but are unlikely to occur in the time course of our experimental protocol. […] More often minor changes in the Hill coefficient are attributed to the altered homogeneity in the receptor population expressed by the HEK293T cell. For example, a shallower Hill coefficient could be caused by a shift in the population of receptors from mostly αβγ receptors to a combination of both αβ and αβγ receptors.

[2] = target: T2, α3(H126R)β2γ2 GABAA receptor (Homo sapiens, UniProt P18507+P34903+P47870, H154R)
T2 construct: expressed in transfected cells; host or cells: HEK293T
T2 sequence (P34903 29-492 H154R): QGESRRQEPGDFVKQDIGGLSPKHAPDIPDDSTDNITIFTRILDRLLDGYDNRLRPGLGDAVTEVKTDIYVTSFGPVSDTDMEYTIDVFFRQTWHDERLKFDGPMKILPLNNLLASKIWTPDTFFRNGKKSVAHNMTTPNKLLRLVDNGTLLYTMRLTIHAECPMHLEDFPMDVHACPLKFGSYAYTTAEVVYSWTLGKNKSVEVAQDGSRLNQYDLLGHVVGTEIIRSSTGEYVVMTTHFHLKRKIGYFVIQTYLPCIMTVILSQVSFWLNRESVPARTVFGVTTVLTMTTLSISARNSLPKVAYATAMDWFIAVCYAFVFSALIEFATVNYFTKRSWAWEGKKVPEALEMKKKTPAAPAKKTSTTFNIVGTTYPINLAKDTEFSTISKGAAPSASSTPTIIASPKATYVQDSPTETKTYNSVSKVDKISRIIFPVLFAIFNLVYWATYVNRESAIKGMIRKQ
T2 sequence (P47870 25-512 limits assumed): as the sequence (P47870 25-512 limits assumed, stated change not applied) above
T2 sequence (P18507 40-467 isoform P18507-1 limits assumed, stated change not applied): as the sequence (P18507 40-467 isoform P18507-1 limits assumed, stated change not applied) above
Source text: as §1, §2, §3, §4

[3] = target: T3, α3(T187P)β2γ2 GABAA receptor (Homo sapiens, UniProt P18507+P34903+P47870, T215P)
T3 construct: expressed in transfected cells; host or cells: HEK293T
T3 sequence (P34903 29-492 T215P): as the sequence (P34903 29-492 H154R) above, with R126H, T187P counted along it
T3 sequence (P47870 25-512 limits assumed): as the sequence (P47870 25-512 limits assumed, stated change not applied) above
T3 sequence (P18507 40-467 isoform P18507-1 limits assumed, stated change not applied): as the sequence (P18507 40-467 isoform P18507-1 limits assumed, stated change not applied) above
Source text: as §1, §2, §3, §4

[4] = target: T4, α4(I204S)β2γ2 GABAA receptor (Homo sapiens, UniProt P18507+P47870+P48169, I239S)
T4 construct: expressed in transfected cells; host or cells: HEK293T
T4 sequence (P48169 36-554 I239S): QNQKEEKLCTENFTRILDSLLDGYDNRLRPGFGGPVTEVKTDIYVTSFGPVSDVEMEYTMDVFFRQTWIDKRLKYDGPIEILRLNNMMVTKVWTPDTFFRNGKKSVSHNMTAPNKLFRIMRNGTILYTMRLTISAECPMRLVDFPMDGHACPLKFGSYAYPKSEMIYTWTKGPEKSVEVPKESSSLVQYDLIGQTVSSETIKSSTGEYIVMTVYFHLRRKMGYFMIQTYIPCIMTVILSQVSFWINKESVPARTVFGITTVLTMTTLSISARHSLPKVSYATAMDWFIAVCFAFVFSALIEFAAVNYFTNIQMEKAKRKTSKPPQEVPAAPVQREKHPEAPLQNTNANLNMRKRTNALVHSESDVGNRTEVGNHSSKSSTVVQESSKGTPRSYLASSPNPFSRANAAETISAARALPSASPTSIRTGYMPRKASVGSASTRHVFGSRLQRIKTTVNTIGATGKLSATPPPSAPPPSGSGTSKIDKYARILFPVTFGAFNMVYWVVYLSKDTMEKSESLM
T4 sequence (P47870 26-474 isoform P47870-1 limits assumed, stated change not applied): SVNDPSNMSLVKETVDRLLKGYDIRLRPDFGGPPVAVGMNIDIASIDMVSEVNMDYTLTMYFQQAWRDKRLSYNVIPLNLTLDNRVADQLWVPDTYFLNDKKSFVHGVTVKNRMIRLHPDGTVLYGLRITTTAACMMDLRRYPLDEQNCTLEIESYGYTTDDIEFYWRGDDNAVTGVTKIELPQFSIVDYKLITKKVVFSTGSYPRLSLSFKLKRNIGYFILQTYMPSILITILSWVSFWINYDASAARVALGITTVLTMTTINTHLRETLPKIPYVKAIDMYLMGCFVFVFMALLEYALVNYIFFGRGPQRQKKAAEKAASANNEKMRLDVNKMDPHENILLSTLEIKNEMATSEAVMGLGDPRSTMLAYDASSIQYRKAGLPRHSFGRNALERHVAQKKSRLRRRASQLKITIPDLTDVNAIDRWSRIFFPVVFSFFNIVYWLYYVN
T4 sequence (P18507 40-467 isoform P18507-1 limits assumed, stated change not applied): as the sequence (P18507 40-467 isoform P18507-1 limits assumed, stated change not applied) above
Source text: as §1, §2, §3, §4

[5] = target: T5, α4(P161T)β2γ2 GABAA receptor (Homo sapiens, UniProt P18507+P47870+P48169, P196T); details: for Midazolam potentiation (%): α4(P161T)
T5 construct: expressed in transfected cells; host or cells: HEK293T
T5 sequence (P48169 36-554 P196T): as the sequence (P48169 36-554 I239S) above, with P161T, S204I counted along it
T5 sequence (P47870 26-474 isoform P47870-1 limits assumed, stated change not applied): as the sequence (P47870 26-474 isoform P47870-1 limits assumed, stated change not applied) above
T5 sequence (P18507 40-467 isoform P18507-1 limits assumed, stated change not applied): as the sequence (P18507 40-467 isoform P18507-1 limits assumed, stated change not applied) above
Source text: as §1, §2, §3, §4

[6] = target: T6, α4(R100H)β2γ2 GABAA receptor (Homo sapiens, UniProt P18507+P47870+P48169, R135H)
T6 construct: expressed in transfected cells; host or cells: HEK293T
T6 sequence (P48169 36-554 R135H): as the sequence (P48169 36-554 I239S) above, with R100H, S204I counted along it
T6 sequence (P47870 26-474 isoform P47870-1 limits assumed, stated change not applied): as the sequence (P47870 26-474 isoform P47870-1 limits assumed, stated change not applied) above
T6 sequence (P18507 40-467 isoform P18507-1 limits assumed, stated change not applied): as the sequence (P18507 40-467 isoform P18507-1 limits assumed, stated change not applied) above
Source text: as §1, §2, §3, §4

[7] = target: T7, α5(S209I)β2γ2 GABAA receptor (Homo sapiens, UniProt P18507+P31644+P47870, S240I)
T7 construct: expressed in transfected cells; host or cells: HEK293T
T7 sequence (P31644 32-462 S240I): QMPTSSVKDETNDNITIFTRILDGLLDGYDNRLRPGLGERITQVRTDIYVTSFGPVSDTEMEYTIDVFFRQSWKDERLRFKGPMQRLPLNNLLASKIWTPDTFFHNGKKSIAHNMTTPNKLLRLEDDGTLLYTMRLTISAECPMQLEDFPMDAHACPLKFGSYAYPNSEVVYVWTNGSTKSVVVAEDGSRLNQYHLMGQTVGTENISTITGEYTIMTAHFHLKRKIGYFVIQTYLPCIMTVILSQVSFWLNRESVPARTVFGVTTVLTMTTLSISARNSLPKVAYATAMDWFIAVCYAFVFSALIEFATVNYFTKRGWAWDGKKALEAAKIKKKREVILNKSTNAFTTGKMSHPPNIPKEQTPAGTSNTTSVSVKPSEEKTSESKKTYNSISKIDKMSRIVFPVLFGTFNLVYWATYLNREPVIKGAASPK
T7 sequence (P47870 26-474 isoform P47870-1 limits assumed, stated change not applied): as the sequence (P47870 26-474 isoform P47870-1 limits assumed, stated change not applied) above
T7 sequence (P18507 40-467 isoform P18507-1 limits assumed, stated change not applied): as the sequence (P18507 40-467 isoform P18507-1 limits assumed, stated change not applied) above
Source text: as §1, §2, §3, §4

Compound: Cc1ncc2n1-c1ccc(Cl)cc1C(c1ccccc1F)=NC2 [midazolam]
- EC50 [1]: 59.8 ± 4.11 nM
- Midazolam potentiation (%) ([1]; 10 nM MDZ + EC10 GABA, α1(S206I)): 13.37 ± 5.70%
- Midazolam potentiation (%) ([1]; 50 nM MDZ + EC10 GABA, α1(S206I)): 44.00 ± 10.96%
- Midazolam potentiation (%) ([1]; 100 nM MDZ + EC10 GABA, α1(S206I)): 80.14 ± 17.04%
- Midazolam potentiation (%) ([1]; 500 nM MDZ + EC10 GABA, α1(S206I)): 107.07 ± 22.95%
- Midazolam potentiation (%) ([1]; 1000 nM MDZ + EC10 GABA, α1(S206I)): 108.21 ± 24.13%
- Max potentiation (%) ([1]; α1(S206I), Hill fit, midazolam 10-1000 nM + EC10 GABA): 135.8 ± 23.8% and 135.8 ± 23.78 %
- Hill coefficient ([1]; α1(S206I), midazolam Hill fit): 1.568 ± 0.199
- responsiveness to midazolam potentiation [2]: abolished the ability of receptors to respond to midazolam potentiation
- Midazolam potentiation (%) ([2]; 10 nM MDZ + EC10 GABA): 3.71 ± 1.31%
- Midazolam potentiation (%) ([2]; 50 nM MDZ + EC10 GABA): 3.63 ± 2.06%
- Midazolam potentiation (%) ([2]; 100 nM MDZ + EC10 GABA): 8.25 ± 1.64%
- Midazolam potentiation (%) ([2]; 500 nM MDZ + EC10 GABA): 7.92 ± 2.84%
- Midazolam potentiation (%) ([2]; 1000 nM MDZ + EC10 GABA): 10.78 ± 2.42%
- EC50 [3]: 55.2 ± 2.91 nM
- Midazolam potentiation (%) ([3]; 10 nM MDZ + EC10 GABA, α3(T187P)): 23.71 ± 6.37%
- Midazolam potentiation (%) ([3]; 50 nM MDZ + EC10 GABA, α3(T187P)): 92.47 ± 12.51%
- Midazolam potentiation (%) ([3]; 100 nM MDZ + EC10 GABA, α3(T187P)): 168.56 ± 23.08%
- Midazolam potentiation (%) ([3]; 500 nM MDZ + EC10 GABA, α3(T187P)): 212.97 ± 30.06%
- Midazolam potentiation (%) ([3]; 1000 nM MDZ + EC10 GABA, α3(T187P)): 213.30 ± 30.99%
- Max potentiation (%) ([3]; α3(T187P), Hill fit, midazolam 10-1000 nM + EC10 GABA): 219.6 ± 32.3%
- Hill coefficient ([3]; α3(T187P), midazolam Hill fit): 1.963 ± 0.224
- responsiveness to midazolam potentiation [4]: failed to convey any notable midazolam potentiation
- Midazolam potentiation (%) ([4]; 10 nM MDZ + EC10 GABA): 9.47 ± 1.93%
- Midazolam potentiation (%) ([4]; 50 nM MDZ + EC10 GABA): 13.23 ± 1.68%
- Midazolam potentiation (%) ([4]; 100 nM MDZ + EC10 GABA): 16.59 ± 1.59%
- Midazolam potentiation (%) ([4]; 500 nM MDZ + EC10 GABA): 20.16 ± 2.01%
- Midazolam potentiation (%) ([4]; 1000 nM MDZ + EC10 GABA): 23.95 ± 2.33%
- Midazolam potentiation (%) ([5]; 10 nM MDZ + EC10 GABA): 13.22 ± 3.76%
- Midazolam potentiation (%) ([5]; 50 nM MDZ + EC10 GABA): 10.31 ± 5.64%
- Midazolam potentiation (%) ([5]; 100 nM MDZ + EC10 GABA): 14.28 ± 5.87%
- Midazolam potentiation (%) ([5]; 500 nM MDZ + EC10 GABA): 21.94 ± 5.61%
- Midazolam potentiation (%) ([5]; 1000 nM MDZ + EC10 GABA): 26.43 ± 9.72%
- responsiveness to midazolam potentiation ([5]; α4(P161T)β2γ2): failed to confer midazolam responsiveness
- EC50 [6]: 74 ± 3.44 nM
- Midazolam potentiation (%) ([6]; 10 nM MDZ + EC10 GABA, α4(R100H)): 26.12 ± 4.95%
- Midazolam potentiation (%) ([6]; 50 nM MDZ + EC10 GABA, α4(R100H)): 54.65 ± 8.66%
- Midazolam potentiation (%) ([6]; 100 nM MDZ + EC10 GABA, α4(R100H)): 87.48 ± 13.68%
- Midazolam potentiation (%) ([6]; 500 nM MDZ + EC10 GABA, α4(R100H)): 117.13%
- Midazolam potentiation (%) ([6]; 1000 nM MDZ + EC10 GABA, α4(R100H)): 125.77%
- Max potentiation (%) ([6]; α4(R100H), Hill fit, midazolam 10-1000 nM + EC10 GABA): 113.8 ± 21.6%
- Hill coefficient ([6]; α4(R100H), midazolam Hill fit): 1.187 ± 0.150
- EC50 [7]: 65.4 ± 2.76 nM
- Midazolam potentiation (%) ([7]; 10 nM MDZ + EC10 GABA, α5(S209I)): 15.95 ± 6.58%
- Midazolam potentiation (%) ([7]; 50 nM MDZ + EC10 GABA, α5(S209I)): 62.43 ± 11.51%
- Midazolam potentiation (%) ([7]; 100 nM MDZ + EC10 GABA, α5(S209I)): 127.16 ± 19.87%
- Midazolam potentiation (%) ([7]; 500 nM MDZ + EC10 GABA, α5(S209I)): 168.94 ± 23.17%
- Midazolam potentiation (%) ([7]; 1000 nM MDZ + EC10 GABA, α5(S209I)): 170.92 ± 25.92%
- increase of maximum midazolam potentiation relative to wildtype ([7]; α5(S209I) vs α5β2γ2): approximately 63%
- Max potentiation (%) ([7]; α5(S209I), Hill fit, midazolam 10-1000 nM + EC10 GABA): 175.1 ± 26.6%
- Hill coefficient ([7]; α5(S209I), midazolam Hill fit): 2.232 ± 0.334
